# Measurements: patent US5885824A, “Recombinant genomic clone encoding the histamine H2 receptor, methods for production thereof, and protein produced therefrom” (The Regents of the University of Michigan, priority 1993, dated 1999)
# Entries after “also recorded” stand apart in the source; their conditions may differ.
# Assays:
# [1] = molecular target: T1, canine histamine H2 receptor (Canis lupus familiaris, UniProt P17124); test: inhibition of [methyl-3H]-tiotidine binding to transformed L-cells; settings: for inhibition of [methyl-3H]-tiotidine binding (in words): percent of maximal specific binding
# T1 construct: cloning of the entire gene encoding a histamine H2 receptor using cDNA derived from mRNA isolated from a canine gastric cell source; expressed in transfected cells; host or cells: mouse L-cells, permanently transfected (CMVneo vector, G418 selection)
# T1 sequence (P17124 whole entry): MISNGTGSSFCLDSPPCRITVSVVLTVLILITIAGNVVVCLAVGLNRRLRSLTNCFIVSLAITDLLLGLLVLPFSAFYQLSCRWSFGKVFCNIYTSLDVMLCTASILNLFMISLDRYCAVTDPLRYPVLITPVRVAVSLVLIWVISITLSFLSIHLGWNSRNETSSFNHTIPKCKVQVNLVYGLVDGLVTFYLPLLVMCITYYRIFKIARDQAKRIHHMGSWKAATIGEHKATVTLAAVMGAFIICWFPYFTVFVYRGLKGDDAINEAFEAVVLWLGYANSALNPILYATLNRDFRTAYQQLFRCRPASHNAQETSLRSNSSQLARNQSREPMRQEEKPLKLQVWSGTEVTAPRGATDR
# Experimental: Transformed L-cells were plated and grown to confluence in 2.4×1.7 cm multi-well plates. The culture media was removed and cells were washed twice with Earle's balanced salt solution containing 0.1% bovine serum albumin. An aliquot (36 nCi) of [methyl-^3 H]-tiotidine (87 Ci/mmol; Dupont, Boston Mass.) was added to the culture in the presence of either cimetidine or diphenhydramine and after one hour of incubation, the medium was removed by aspiration. The cells were washed twice with 0.2M phosphate buffered NaCl pH 7.4, lysed with 1% Triton X-100, and the radioactivity was quantified. Maximum binding was determined by incubation of [methyl-^3H]-tiotidine with transformed L-cells in the absence of antagonists and non-specific binding, which was subtracted from total binding to obtain specific binding, was determined as the amount of label remaining bound in the presence of 10^-4 M histamine. The data, presented as percent of maximal specific binding, are from a single experiment and are virtually identical to data obtained in two other experiments.
# [2] = molecular target: T1, canine histamine H2 receptor; test: cyclic AMP content of L-cells transfected with CMVneo vector containing the canine histamine H2 receptor gene insert; format: cell-based; settings: for effect on cAMP content: doses as high as 10^-4 M, transfected L-cells
SMILES,inhibition of [methyl-3H]-tiotidine binding (in words) [1],effect on cAMP content [2],also measured
CN(C)CCOC(c1ccccc1)c1ccccc1 [diphenhydramine],inhibited binding only at the very highest dose; also recorded: no ability to inhibit [methyl-^3 H]-tiotidine except with the highest dose,–,–
NCCc1ccc(O)c(O)c1 [dopamine],–,no effect,–
NCCc1c[nH]cn1 [histamine],–,–,"activation at 10 µM ([2]; 1 h, read-out: maximum increase in cellular cyclic AMP content): 217 ± 10%"
NCCc1c[nH]c2ccc(O)cc12 [Serotonin],–,no effect,–
CNC[C@H](O)c1ccc(O)c(O)c1 [epinephrine],–,no effect,–
CN/C(=N/CCSCc1nc[nH]c1C)NC#N [cimetidine],dose-dependently inhibited label binding,–,"IC50 ([1]; one hour of incubation, mean±se n=4, read-out: ED50 for displacement of [methyl-3H]-tiotidine binding): 550 nM; effect on histamine cAMP dose-response curve ([2]; 60 min pre-incubation with cimetidine (10^-4 M)): shifted to the right"
